Measured values as given in patent US8524766B2, “Modulators of dopamine neurotransmission” (NSAB, Filial af Neurosearch Sweden AB, Sverige, priority 2008, dated 2013).
Where a name gives a salt, the structure may show the parent alone.

Columns and labels:
[1] = tested on: DOPAC (3,4-dihydroxyphenylacetic acid) in the rat striatum; assay: Increase of DOPAC in the rat striatum after systemic administration (in vivo neurochemistry); conditions: sc; estimated ED50 on increase of DOPAC in rat striatum, systemic administration (s.c.), curve fitting
Excerpt: After the behavioural activity sessions, the rats are decapitated and their brains rapidly taken out and put on an ice-cold petri-dish. The limbic forebrain, the striatum, the frontal cortex and the remaining hemispheral parts of each rat are dissected and frozen. Each brain part is subsequently analyzed with respect to its content of monoamines and their metabolites.
The monoamine transmitter substances (NA (noradrenaline), DA (dopamine), 5-HT (serotonin)) as well as their amine (NM (normethanephrine), 3-MT (3-methoxytyramine)) and acid (DOPAC (3,4-dihydroxyphenylacetic acid), 5-HIAA (5-hydroxyindoleacetic acid), HVA (homovanillic acid)) metabolites are quantified in brain tissue homogenates by HPLC separations and electrochemical detection.
The analytical method is based on two chromatographic separations dedicated for amines or acids. Two chromatographic systems share a common auto injector with a 10-port valve and two sample loops for simultaneous injection on the two systems. Both systems are equipped with a reverse phase column (Luna C18(2), dp 3 μm, 50*2 mm i.d., Phenomenex) and electrochemical detection is accomplished at two potentials on glassy carbon electrodes (MF-1000, Bioanalytical Systems, Inc.). The column effluent is passed via a T-connection to the detection cell or to a waste outlet. This is accomplished by two solenoid valves, which block either the waste or detector outlet. By preventing the chromatographic front from reaching the detector, better detection conditions are achieved. The aqueous mobile phase (0.4 ml/min) for the acid system contains citric acid 14 mM, sodium citrate 10 mM, MeOH 15% (v/v) and EDTA 0.1 mM. Detection potentials relative to Ag/AgCl reference are 0.45 and 0.60V. The aqueous ion pairing mobile phase (0.5 ml/min) for the amine system contains citric acid 5 mM, sodium citrate 10 mM, MeOH 9% (v/v), MeCN 10.5% v/v), decane sulfonic acid 0.45 mM, and EDTA 0.1 mM. Detection potentials relative to Ag/AgCl reference are 0.45 and 0.65V.
ED50 values for the increase of DOPAC in striatum are calculated by curve fitting.

[2] = tested on: drug-naive rats; assay: Locomotor activity in drug-naive rats (in vivo behaviour); parameters: species or system rat; conditions: recorded for 60 minutes, ± SEM
Excerpt: Photobeam sensors are spaced 2.5 cm apart.

Row | SMILES | melting point | further results
1 | CC1CCCN(C[C@@H]2COc3ccc(S(C)(=O)=O)cc3O2)C1 (stereo partly drawn) (as salt: fumaric acid salt) | 159 °C | 
2 | CS(=O)(=O)c1ccc2c(c1)OC(CN1CCCC1)CO2 (stereo not drawn) (as salt: hydrochloric acid salt) | 221 °C | 
3 | CC(C)CNC[C@@H]1COc2ccc(S(C)(=O)=O)cc2O1 (as salt: hydrochloric acid salt) | 213 °C | 
4 | CC(C)CNC[C@H]1COc2ccc(S(C)(=O)=O)cc2O1 (as salt: hydrochloric acid salt) | 214 °C | 
5 | CNCC1COc2c(F)cc(S(C)(=O)=O)cc2O1 (stereo not drawn) (as salt: hydrochloric acid salt) | 243 °C | 
6 | CCNC[C@H]1COc2ccc(S(=O)(=O)C(F)(F)F)cc2O1 (as salt: hydrochloric acid salt) | 208 °C | 
7 | CCNC[C@H]1COc2ccc(S(C)(=O)=O)c(F)c2O1 (as salt: hydrochloric acid salt) | 270 °C | 
8 | CCNC[C@H]1COc2c(Cl)cc(S(C)(=O)=O)cc2O1 (as salt: hydrochloric acid salt) | 267 °C | 
9 | CS(=O)(=O)c1ccc2c(c1)O[C@@H](CNCCC(F)(F)F)CO2 (as salt: hydrochloric acid salt) | 204 °C | 
10 | CCNCC1COc2ccc(S(C)(=O)=O)cc2O1 (stereo not drawn) (as salt: hydrochloric acid salt) | 261 °C | 
11 | CS(=O)(=O)c1cc(F)c2c(c1)O[C@@H](CNCCC(F)(F)F)CO2 (as salt: hydrochloric acid salt) | 233 °C | 
12 | CNC[C@H]1COc2c(F)cc(S(C)(=O)=O)cc2O1 (as salt: hydrochloric acid salt) | 260 °C | 
13 | CCNC[C@H]1COc2ccc(S(C)(=O)=O)cc2O1 (as salt: hydrochloric acid salt) | 271 °C | 
14 | CNC[C@H]1COc2c(Cl)cc(S(C)(=O)=O)cc2O1 (as salt: hydrochloric acid salt) | 262 °C | 
15 | CC(C)(C)CNC[C@H]1COc2ccc(S(C)(=O)=O)cc2O1 (as salt: hydrochloric acid salt) | 242 °C | 
16 | CS(=O)(=O)c1cc(F)c2c(c1)O[C@@H](CN1CCOCC1)CO2 (as salt: hydrochloric acid salt) | 251 °C | 
17 | CCCNCC1COc2ccc(S(C)(=O)=O)cc2O1 (stereo not drawn) (as salt: hydrochloric acid salt) [Example 1, N-{[7-(METHYLSULFONYL)-2,3-DIHYDRO-1,4-BENZODIOXIN-2-YL]METHYL}-PROPAN-1-AMINE] | 223 °C | 
18 | CCCNC[C@@H]1COc2ccc(S(C)(=O)=O)cc2O1 (as salt: hydrochloric acid salt) [Example 2, N-{[(2R)-7-(METHYLSULFONYL)-2,3-DIHYDRO-1,4-BENZODIOXIN-2-YL]METHYL}-PROPAN-1-AMINE] | 228 °C | 

Row | SMILES | melting point | further results
19 | CCCNC[C@H]1COc2ccc(S(C)(=O)=O)cc2O1 (as salt: hydrochloric acid salt) [Example 3, N-{[(2S)-7-(METHYLSULFONYL)-2,3-DIHYDRO-1,4-BENZODIOXIN-2-YL]METHYL}-PROPAN-1-AMINE] | 228 °C | 
20 | CS(=O)(=O)c1ccc2c(c1)OC(CN1CCCCC1)CO2 (stereo not drawn) (as salt: hydrochloric acid salt) [Example 6, 1-{[7-(METHYLSULFONYL)-2,3-DIHYDRO-1,4-BENZODIOXIN-2-YL]METHYL}PIPERIDINE] | 248 °C | 
21 | CS(=O)(=O)c1ccc2c(c1)O[C@@H](CN1CCCCC1)CO2 (as salt: hydrochloric acid salt) [Example 7, 1-{[(2S)-7-(METHYLSULFONYL)-2,3-DIHYDRO-1,4-BENZODIOXIN-2-YL]METHYL}PIPERIDINE] | 227 °C | 
22 | CS(=O)(=O)c1ccc2c(c1)O[C@H](CN1CCCCC1)CO2 (as salt: hydrochloric acid salt) [Example 8, 1-{[(2R)-7-(METHYLSULFONYL)-2,3-DIHYDRO-1,4-BENZODIOXIN-2-YL]METHYL}PIPERIDINE] | 226 °C | 
23 | CNCC1COc2ccc(S(C)(=O)=O)cc2O1 (stereo not drawn) (as salt: hydrochloric acid salt) [Example 9, N-METHYL-1-[7-(METHYLSULFONYL)-2,3-DIHYDRO-1,4-BENZODIOXIN-2-YL]METHANAMINE] | 273 °C | 
24 | CNC[C@H]1COc2ccc(S(C)(=O)=O)cc2O1 (as salt: hydrochloric acid salt) [Example 10, N-METHYL-1-[(2S)-7-(METHYLSULFONYL)-2,3-DIHYDRO-1,4-BENZODIOXIN-2-YL]METHANAMINE] | 248 °C | 
25 | CCCN(C)CC1COc2ccc(S(C)(=O)=O)cc2O1 (stereo not drawn) (as salt: hydrochloric acid salt) [Example 15, N-METHYL-N-{[7-(METHYLSULFONYL)-2,3-DIHYDRO-1,4-BENZODIOXIN-2-YL]METHYL}PROPAN-1-AMINE] | 222 °C | 
26 | CCCN(CCC)CC1COc2ccc(S(C)(=O)=O)cc2O1 (stereo not drawn) (as salt: hydrochloric acid salt) [Example 16, N-{[7-(METHYLSULFONYL)-2,3-DIHYDRO-1,4-BENZODIOXIN-2-YL]METHYL}-N-PROPYLPROPAN-1-AMINE] | 182 °C | 
27 | CCNCC1COc2c(F)cc(S(C)(=O)=O)cc2O1 (stereo not drawn) (as salt: hydrochloric acid salt) [Example 18, N-{[5-FLUORO-7-(METHYLSULFONYL)-2,3-DIHYDRO-1,4-BENZODIOXIN-2-YL]METHYL}ETHANAMINE] | 256 °C | 
28 | CCNC[C@H]1COc2c(F)cc(S(C)(=O)=O)cc2O1 (as salt: hydrochloric acid salt) [Example 19, N-{[(2S)-5-FLUORO-7-(METHYLSULFONYL)-2,3-DIHYDRO-1,4-BENZODIOXIN-2-YL]METHYL}ETHANAMINE] | 274 °C | 
29 | CCCNC[C@H]1COc2c(F)cc(S(C)(=O)=O)cc2O1 (as salt: hydrochloric acid salt) [Example 21, N-{[(2S)-5-FLUORO-7-(METHYLSULFONYL)-2,3-DIHYDRO-1,4-BENZODIOXIN-2-YL]METHYL}PROPAN-1-AMINE] | 226 °C | 
30 | CCCNC[C@H]1COc2ccc(S(=O)(=O)C(F)(F)F)cc2O1 (as salt: hydrochloric acid salt) [Example 24, N-{[(2S)-7-(TRIFLUOROMETHYLSULFONYL)-2,3-DIHYDRO-1,4-BENZODIOXIN-2-YL]METHYL}PROPAN-1-AMINE] | 175 °C | 
31 | CCCNC[C@H]1COc2c(F)cc(S(C)(=O)=O)cc2O1 (as salt: hydrochloric acid salt) [Example 76, N-{[(2S)-5-FLUORO-7-(METHYLSULFONYL)-2,3-DIHYDRO-1,4-BENZODIOXIN-2-YL]METHYL}-PROPAN-1-AMINE] | 192 °C | 
32 | CC(C)NC[C@H]1COc2ccc(S(=O)(=O)C(F)(F)F)cc2O1 (as salt: hydrochloric acid salt) [Example 98, N-({(2S)-7-[(TRIFLUOROMETHYL)SULFONYL]-2,3-DIHYDRO-1,4-BENZODIOXIN-2-YL}METHYL)PROPAN-2-AMINE] | 196.2 to 196.5 °C | 
33 | CCCNC[C@@H]1COc2ccc(S(C)(=O)=O)cc2O1 [Example 2, N-{[(2R)-7-(METHYLSULFONYL)-2,3-DIHYDRO-1,4-BENZODIOXIN-2-YL]METHYL}-PROPAN-1-AMINE] |  | ED50 [1]: 47 µmol/kg; Locomotor activity ([2]; 3.7 μmol/kg): 10728 ± 1557 counts/60 min; Locomotor activity ([2]; 11 μmol/kg): 10346 ± 857 counts/60 min; Locomotor activity ([2]; 33 μmol/kg): 11427 ± 1559 counts/60 min
34 | CCCNC[C@H]1COc2ccc(S(C)(=O)=O)cc2O1 [Example 3, N-{[(2S)-7-(METHYLSULFONYL)-2,3-DIHYDRO-1,4-BENZODIOXIN-2-YL]METHYL}-PROPAN-1-AMINE] |  | ED50 [1]: 6.1 µmol/kg; Locomotor activity ([2]; 3.7 μmol/kg): 10297 ± 860 counts/60 min; Locomotor activity ([2]; 11 μmol/kg): 8973 ± 2186 counts/60 min; Locomotor activity ([2]; 33 μmol/kg): 6830 ± 128 counts/60 min
35 | CS(=O)(=O)c1ccc2c(c1)O[C@@H](CN1CCCCC1)CO2 [Example 7, 1-{[(2S)-7-(METHYLSULFONYL)-2,3-DIHYDRO-1,4-BENZODIOXIN-2-YL]METHYL}PIPERIDINE] |  | ED50 [1]: 12 µmol/kg; Locomotor activity ([2]; 3.7 μmol/kg): 7905 ± 656 counts/60 min; Locomotor activity ([2]; 11 μmol/kg): 5469 ± 734 counts/60 min; Locomotor activity ([2]; 33 μmol/kg): 3334 ± 780 counts/60 min
36 | CCCN(CCC)CC1COc2ccc(S(C)(=O)=O)cc2O1 (stereo not drawn) [Example 16, N-{[7-(METHYLSULFONYL)-2,3-DIHYDRO-1,4-BENZODIOXIN-2-YL]METHYL}-N-PROPYLPROPAN-1-AMINE] |  | ED50 [1]: 29 µmol/kg; Locomotor activity ([2]; 3.7 μmol/kg): 13645 ± 3301 counts/60 min; Locomotor activity ([2]; 11 μmol/kg): 11807 ± 2628 counts/60 min; Locomotor activity ([2]; 33 μmol/kg): 18642 ± 2454 counts/60 min
